# Laboratory results from patent US11220504B2, “Pyrrolo[3,2-d] pyrimidine derivatives for the treatment of viral infections and other diseases” (JANSSEN SCIENCES IRELAND UNLIMITED COMPANY, priority 2012, dated 2022).
# Assays:
# human TLR7 = target: T1, human TLR7 (Homo sapiens, UniProt Q9NYK1); test: TLR7 cellular reporter assay (HEK293, NFκB-luc); type: cell-based; conditions: HEK293 cells transfected with CMV-TLR7 and NFκB-luc, 6 hours incubation; lowest effective concentration
# T1 construct: expressed in transfected cells; host or cells: HEK293 cells, transient transfection with CMV-TLR7 plasmid and NFκB-luc plasmid
# T1 sequence (Q9NYK1 27-1049): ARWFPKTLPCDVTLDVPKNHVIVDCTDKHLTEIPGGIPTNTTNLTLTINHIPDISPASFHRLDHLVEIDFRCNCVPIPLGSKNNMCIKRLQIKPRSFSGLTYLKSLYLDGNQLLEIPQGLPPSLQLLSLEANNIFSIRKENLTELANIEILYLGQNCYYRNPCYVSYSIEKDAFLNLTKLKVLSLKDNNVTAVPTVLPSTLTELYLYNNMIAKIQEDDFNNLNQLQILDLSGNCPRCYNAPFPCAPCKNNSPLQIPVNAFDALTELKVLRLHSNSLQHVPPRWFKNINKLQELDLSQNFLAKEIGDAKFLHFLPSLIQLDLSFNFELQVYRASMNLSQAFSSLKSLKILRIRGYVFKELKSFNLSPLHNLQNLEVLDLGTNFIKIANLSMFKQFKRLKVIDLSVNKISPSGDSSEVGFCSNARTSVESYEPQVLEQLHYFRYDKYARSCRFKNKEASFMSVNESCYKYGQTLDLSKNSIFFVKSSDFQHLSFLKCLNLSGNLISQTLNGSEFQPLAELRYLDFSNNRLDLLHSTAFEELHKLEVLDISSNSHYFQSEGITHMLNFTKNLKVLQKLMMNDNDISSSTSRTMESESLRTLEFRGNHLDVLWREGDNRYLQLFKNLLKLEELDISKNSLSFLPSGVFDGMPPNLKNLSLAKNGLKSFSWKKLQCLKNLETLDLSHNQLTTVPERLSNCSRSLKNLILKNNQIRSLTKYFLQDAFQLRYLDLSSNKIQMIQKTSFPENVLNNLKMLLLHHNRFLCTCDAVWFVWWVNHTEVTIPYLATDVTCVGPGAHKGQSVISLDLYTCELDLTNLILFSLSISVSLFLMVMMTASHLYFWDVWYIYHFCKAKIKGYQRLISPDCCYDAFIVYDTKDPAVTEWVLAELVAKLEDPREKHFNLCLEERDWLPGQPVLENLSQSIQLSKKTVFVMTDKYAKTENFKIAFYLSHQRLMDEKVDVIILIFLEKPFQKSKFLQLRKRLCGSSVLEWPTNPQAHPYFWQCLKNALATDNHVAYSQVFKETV
# Description: (§1) The ability of compounds to activate human TLR7 and/or TLR8 was assessed in a cellular reporter assay using HEK293 cells transiently transfected with a TLR7 or TLR8 expression vector and NFκB-luc reporter construct.
# (§2) Briefly, HEK293 cells were grown in culture medium (DMEM supplemented with 10% FCS and 2 mM Glutamine). […] Thirty microliters of cells were then dispensed into each well in 384-well plates, where 10 μL of compound in 4% DMSO was already present. Following 6 hours incubation at 37° C., 5% CO2, the luciferase activity was determined by adding 15 μL of Steady Lite Plus substrate (Perkin Elmer) to each well and readout performed on a ViewLux ultraHTS microplate imager (Perkin Elmer). Dose response curves were generated from measurements performed in quadruplicates.
# human TLR8 = target: T2, human TLR8 (Homo sapiens, UniProt Q9NR97); test: TLR8 cellular reporter assay (HEK293, NFκB-luc); type: cell-based; conditions: HEK293 cells transfected with CMV-TLR8 and NFκB-luc, 6 hours incubation; lowest effective concentration
# T2 construct: expressed in transfected cells; host or cells: HEK293 cells, transient transfection with TLR8 plasmid and NFκB-luc plasmid
# T2 sequence (Q9NR97 27-1041): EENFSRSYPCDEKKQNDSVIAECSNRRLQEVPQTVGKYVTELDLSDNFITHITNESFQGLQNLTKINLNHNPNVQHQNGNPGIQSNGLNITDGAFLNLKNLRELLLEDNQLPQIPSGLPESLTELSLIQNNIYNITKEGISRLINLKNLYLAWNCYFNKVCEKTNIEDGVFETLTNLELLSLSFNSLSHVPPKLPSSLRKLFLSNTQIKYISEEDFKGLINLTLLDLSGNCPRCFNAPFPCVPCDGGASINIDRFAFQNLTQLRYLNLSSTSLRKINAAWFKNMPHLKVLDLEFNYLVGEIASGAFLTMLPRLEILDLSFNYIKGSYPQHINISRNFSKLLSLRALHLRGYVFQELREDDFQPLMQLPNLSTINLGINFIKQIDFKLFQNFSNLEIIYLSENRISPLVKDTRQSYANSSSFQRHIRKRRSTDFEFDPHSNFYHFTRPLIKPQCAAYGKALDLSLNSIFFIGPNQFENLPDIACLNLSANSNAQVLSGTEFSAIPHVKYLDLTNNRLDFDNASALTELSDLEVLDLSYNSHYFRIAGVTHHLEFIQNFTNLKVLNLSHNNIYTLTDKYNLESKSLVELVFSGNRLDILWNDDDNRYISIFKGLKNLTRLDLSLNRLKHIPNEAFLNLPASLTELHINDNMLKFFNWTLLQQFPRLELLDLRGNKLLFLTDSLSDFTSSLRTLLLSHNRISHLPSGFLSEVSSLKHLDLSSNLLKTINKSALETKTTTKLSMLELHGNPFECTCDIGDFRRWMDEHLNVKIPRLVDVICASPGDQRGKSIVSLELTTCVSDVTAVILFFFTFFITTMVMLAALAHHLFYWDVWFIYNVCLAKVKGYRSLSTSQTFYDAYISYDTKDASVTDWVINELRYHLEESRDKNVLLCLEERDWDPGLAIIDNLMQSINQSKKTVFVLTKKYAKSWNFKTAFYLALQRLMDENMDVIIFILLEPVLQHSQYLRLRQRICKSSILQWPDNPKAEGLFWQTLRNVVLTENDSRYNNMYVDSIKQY
# Description: as §1, §2
# [1] = tested on: interferon-stimulated responsive elements (ISRE); test: Activation of ISRE promoter elements by conditioned media from PBMC (HEK-ISREluc); type: cell-based, human; conditions: Homo sapiens; conditioned media from PBMC transferred to HEK-ISREluc cells, 24 hours; lowest effective concentration; read-out: PBMC LEC
# Description: The potential of compounds to induce IFN-I was also evaluated by measuring the activation of interferon-stimulated responsive elements (ISRE) by conditioned media from PBMC. The ISRE element of sequence […] (SEQ. ID NO:1) is highly responsive to the STAT1-STAT2-IRF 9 transcription factor, activated upon binding of IFN-I to their receptor IFNAR (Clontech, PT3372-5W). […] A HEK293 cell line stably transfected with pISRE-Luc (HEK-ISREluc) was established to profile of the conditioned PBMC cell culture media.
# Briefly, PBMCs were prepared from buffy coats of at least two donors using a standard Ficoll centrifugation protocol. Isolated PBMCs were resuspended in RPMI medium supplemented with 10% human AB serum and 2×10^5 cells/well were dispensed into 384-well plates containing compounds (70 μL total volume). After overnight incubation, 10 μL of supernatant was transferred to 384-well plates containing 5×10^3 HEK-ISREluc cells/well in 30 μL (plated the day before). Following 24 hours of incubation, activation of the ISRE elements was measured by assaying luciferase activity using 40 μL/well Steady Lite Plus substrate (Perkin Elmer) and measured with ViewLux ultraHTS microplate imager (Perkin Elmer). The stimulating activity of each compound on the HEK-ISREluc cells was reported as LEC value, defined as the compound concentration applied to the PBMCs resulting in a luciferase activity at least two fold above the standard deviation of the assay. The LEC in turn indicates the degree of ISRE activation on transfer of a defined amount of PBMC culture medium. Recombinant interferon α-2a (Roferon-A) was used as a standard control compound.
TLR7 LEC (human TLR7) [µM],TLR8 LEC (human TLR8) [µM],SMILES,minimal effective concentration [1] [µM]
0.60,13.5,CCCCNc1nc(N)nc2ccn(CCOC)c12 [Compound 4],0.4
0.30,>25,CCCCNc1nc(N)nc2ccn(Cc3cccc(F)c3)c12 [Compound 5],0.2
0.49,1.7,CCCCNc1nc(N)nc2ccn(CCCC)c12 [Compound 8],0.15
0.53,2.1,CCCCNc1nc(N)nc2ccn(CCC)c12 [Compound 9],0.22
0.52,6.57,CCCC[C@@H](CO)Nc1nc(N)nc2ccn(Cc3cccnn3)c12 [Compound 14],0.01
0.07,12.5,CCC[C@@H](CO)Nc1nc(N)nc2ccn(Cc3ccccc3)c12 [Compound 17],0.01
0.009,7.4,CCC[C@@H](CCO)Nc1nc(N)nc2ccn(Cc3ccccc3)c12 [Compound 21],0.0007
0.83,>25,CCCNc1nc(N)nc2ccn(Cc3ccccc3)c12 [Compound 23],0.27
0.02,6.47,CCC[C@@H](CCO)Nc1nc(N)nc2ccn(Cc3ccccn3)c12 [Compound 24],0.0007
0.01,2.84,CCCC[C@@H](CCO)Nc1nc(N)nc2ccn(Cc3ccccn3)c12 [Compound 25],0.001
0.15,0.85,CCC[C@@H](CO)Nc1nc(N)nc2ccn(CC(C)C)c12 [Compound 27],0.17

# The remaining lines, values behind:
SMILES,TLR7 LEC (human TLR7) [µM],TLR8 LEC (human TLR8) [µM],minimal effective concentration [1] [µM]
"COCCn1ccc2nc(N)nc(N[C@H](C)c3ccccn3)c21 (single isomer, unassigned) [Compound 151]",12.8,>25,2.58
"COCCn1ccc2nc(N)nc(N[C@@H](C)c3ccccn3)c21 (single isomer, unassigned) [Compound 152]",0.73,>25,0.142
CCCCNc1nc(N)nc2ccn(Cc3ccccc3Oc3ccccc3)c12 [Compound 2],0.50,>25,0.6
CCCCNc1nc(N)nc2ccn(Cc3cc(F)ccc3Br)c12 [Compound 3],2.6,>25,1.2
CCCCNc1nc(N)nc2ccn(Cc3ccccc3Br)c12 [Compound 6],1.3,>25,0.7
CCCCNc1nc(N)nc2ccn(Cc3ccccc3-c3ccccc3)c12 [Compound 7],0.61,>25,0.8
CCCCNc1nc(N)nc2ccn(CCc3ccccc3)c12 [Compound 11],1.5,3.5,0.56
CCCCNc1nc(N)nc2ccn(Cc3ccccc3Cl)c12 [Compound 13],0.80,>25,0.89
CCC[C@@H](CO)Nc1nc(N)nc2ccn(Cc3cccnn3)c12 [Compound 15],5.84,>25,0.1
CCCCNc1nc(N)nc2ccn(Cc3ccc(F)c(Cl)c3)c12 [Compound 16],0.89,>25,0.6
CCCCNc1nc(N)nc2ccn(C(C)C)c12 [Compound 19],2.5,7.06,0.62
CCCCNc1nc(N)nc2ccn(Cc3cc(C)on3)c12 [Compound 20],0.14,1.3,0.02
CCC[C@@H](CO)Nc1nc(N)nc2ccn(Cc3ccccn3)c12 [Compound 22],0.48,9.2,0.02
CCCC[C@@H](CCO)Nc1nc(N)nc2ccn(CC(C)C)c12 [Compound 28],0.11,1.1,0.03
CCCCCNc1nc(N)nc2ccn(Cc3ccccc3)c12 [Compound 29],0.15,>25,0.04
CCC[C@@H](CCO)Nc1nc(N)nc2ccn(CC(C)C)c12 [Compound 30],0.16,0.67,0.05
COCCNc1nc(N)nc2ccn(CC(=O)N(C)C)c12 [Compound 166],4.88,–,–
COc1ccc(Cn2ccc3nc(N)nc(NCc4cc(C)on4)c32)nc1 [Compound 171],0.02,>25,–
